Measured values from US20080027076A1, “Pyrimidines With Tie2 (Tek) Activity” (ASTRAZENECA AB, priority 2003, published 2008).

Columns and labels:
[1] = molecular target: T1, Tie2 receptor tyrosine kinase (Homo sapiens, UniProt Q02763); experiment: In vitro receptor tyrosine kinase inhibition assay (ELISA based, Test (a)); assay type: biochemical; conditions: recombinant human Tie2 kinase domain lysate, synthetic peptide substrate
T1 construct: consist of only the intracellular portion C-terminal portion of the respective receptor, within which is found the kinase domain; made in house; host or cells: baculovirus/Sf21 insect cells (cleared lysate used)
Method: a. In Vitro Receptor Tyrosine Kinase Inhibition Assay
To test for inhibition of Tie2 receptor tyrosine kinase, compounds are evaluated in a non-cell based protein kinase assay by their ability to inhibit the protein kinase enzyme phosphorylation of a tyrosine containing polypeptide substrate in an ELISA based microtitre plate assay. In this particular case, the assay was to determine the IC50, for three different recombinant human tyrosine kinases Tie2, KDR and Flt.
To facilitate production of the tyrosine kinases, recombinant receptor genes were produced using standard molecular biology cloning and mutagenesis techniques. These recombinant proteins fragments encoded within these genes consist of only the intracellular portion C-terminal portion of the respective receptor, within which is found the kinase domain. The recombinant genes encoding the kinase domain containing fragments were cloned and expressed in standard baculovirus/Sf21 system (or alternative equivalent). […]
Constitutive kinase activity of these recombinant proteins was determined by their ability to phosphorylate a synthetic peptide (made up of a random co-polymer of Glutamic Acid, Alanine and Tyrosine in the ratio of 6:3:1). […]
The immobilised phospho-peptide product of the reaction was detected by immunological methods. […] Following extensive washing with PBS-T, HRP activity in each well of the plate was measured colorimetrically using 22′-Azino-di-[3-ethylbenzthiazoline sulfonate (6)] diammonium salt crystals ABTS (Sigma P4922-prepared as per manufactures instructions) as a substrate incubated for 30-45 minutes to allow colour development, before 100 ul of 1M H2SO4 was added to stop the reaction.
Quantification of colour development and thus enzyme activity was achieved by the measurement of absorbance at 405 nm on a Molecular Devices ThermoMax microplate reader. Kinase inhibition for a given compound was expressed as an IC50 value. […] The range of phosphorylation was calculated from the positive (vehicle plus ATP) and negative (vehicle minus ATP) control values.

Tie2 receptor = molecular target: T2, Tie2 receptor (Homo sapiens, UniProt Q02763); experiment: Cellular Tie2 autophosphorylation assay (Test (b)); assay type: cell-based; conditions: Ang1 ligand stimulated cellular Tie2 receptor, e.g. EA.hy926/B3 cells; read-out: IC50 Test (b): Inhibition of autophosphorylation of Tie2 receptor tyrosine kinase
T2 construct: one can use natural cell lines or primary cells which are known to express the receptor of choice; endogenous in cells; host or cells: EA.hy926/B3 cells
From the text: b. Cellular Tie2 Autophosphorylation Assay
This assay is based on measuring the ability of compounds to inhibit autophosphorylation of the Tie2 receptor which normally leads to the production of “activated” receptor that in turn initiates the particular signal transduction pathways associated with the receptor function.
Autophosphorylation can be achieved by a number of means. It is known that expression of recombinant kinase domains in baculoviral systems can lead to the production of phosphorylated and activated receptor. It is also reported that over expression of receptors in recombinant cell lines can itself lead to receptor autophosphorylation in the absence of the ligand (Heldin C-H. 1995 Cell : 80, 213-223; Blume-J. P, Hunter T. 2001 Nature: 411, 355-65). Furthermore, there are numerous literature examples in which chimaeric receptors have been constructed. In these cases the natural, external cell surface domain of the receptor has been replaced with that of a domain which is known to be readily dimerised via the addition of the appropriate ligand (e.g. TrkA-Tie2/NGF ligand (Marron, M. B., et al., 2000 Journal of Biological Chemistry: 275:39741-39746) or C-fms-Tie-1/CSF-1 ligand (Kontos, C. D., et al., 2002 Molecular and Cellular Biology: 22, 1704-1713). Thus when the chimaeric receptor expressed in a host cell line and the respective ligand is added, this induces autophosphorylation of the chimeric receptor's kinase domain. This approach has the advantage of often allowing a known (and often easily obtained) ligand to be used instead of having to identify and isolate the natural ligand for each receptor of interest.
Naturally if the ligand is available one can use natural cell lines or primary cells which are known to express the receptor of choice and simply stimulate with ligand to achieve ligand induced phosphorylation. […]

T1 sequence (Q02763 770-1124 limits assumed): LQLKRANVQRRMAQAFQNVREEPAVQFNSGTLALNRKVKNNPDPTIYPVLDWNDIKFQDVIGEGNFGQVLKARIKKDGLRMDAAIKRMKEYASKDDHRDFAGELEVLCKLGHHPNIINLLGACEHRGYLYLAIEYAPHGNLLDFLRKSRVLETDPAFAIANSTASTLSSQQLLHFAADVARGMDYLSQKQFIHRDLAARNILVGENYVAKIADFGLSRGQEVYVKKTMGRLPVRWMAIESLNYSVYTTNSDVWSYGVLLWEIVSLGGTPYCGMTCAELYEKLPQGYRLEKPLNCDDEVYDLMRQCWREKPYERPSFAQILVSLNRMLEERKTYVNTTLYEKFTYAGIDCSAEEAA
T2 sequence (Q02763 23-1124): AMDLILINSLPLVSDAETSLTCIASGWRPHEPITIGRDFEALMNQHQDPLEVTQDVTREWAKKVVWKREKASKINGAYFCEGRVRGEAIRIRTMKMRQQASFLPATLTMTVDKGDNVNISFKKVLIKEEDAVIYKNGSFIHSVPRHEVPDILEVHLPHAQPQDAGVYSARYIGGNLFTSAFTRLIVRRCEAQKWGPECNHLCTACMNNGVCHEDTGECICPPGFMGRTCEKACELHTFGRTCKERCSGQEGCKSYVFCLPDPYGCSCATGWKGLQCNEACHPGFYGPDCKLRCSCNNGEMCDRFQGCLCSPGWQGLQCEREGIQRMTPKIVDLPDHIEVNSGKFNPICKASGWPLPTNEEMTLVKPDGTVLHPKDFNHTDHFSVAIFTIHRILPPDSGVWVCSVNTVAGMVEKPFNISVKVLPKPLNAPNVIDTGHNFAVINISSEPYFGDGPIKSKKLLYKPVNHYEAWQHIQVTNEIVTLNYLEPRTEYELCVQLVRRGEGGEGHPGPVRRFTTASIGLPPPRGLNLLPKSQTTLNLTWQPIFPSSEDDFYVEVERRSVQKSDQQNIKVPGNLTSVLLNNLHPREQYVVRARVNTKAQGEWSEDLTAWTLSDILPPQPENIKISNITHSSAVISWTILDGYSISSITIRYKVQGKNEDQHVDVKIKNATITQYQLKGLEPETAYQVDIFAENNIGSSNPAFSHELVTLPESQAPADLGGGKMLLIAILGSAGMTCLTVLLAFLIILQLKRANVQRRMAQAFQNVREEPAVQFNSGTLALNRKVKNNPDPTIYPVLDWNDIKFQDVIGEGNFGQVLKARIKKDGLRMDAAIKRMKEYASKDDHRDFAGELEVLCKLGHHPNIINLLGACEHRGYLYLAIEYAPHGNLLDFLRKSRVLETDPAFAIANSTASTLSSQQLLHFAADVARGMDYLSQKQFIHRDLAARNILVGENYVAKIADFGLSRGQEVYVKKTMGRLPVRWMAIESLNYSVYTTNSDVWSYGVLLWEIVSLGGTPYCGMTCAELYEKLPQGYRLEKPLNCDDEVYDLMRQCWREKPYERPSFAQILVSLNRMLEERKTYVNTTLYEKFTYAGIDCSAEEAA

IC50 [1] [µM] | IC50 (Tie2 receptor) [µM] | SMILES
0.879 | 5.56 | CC(C)(C)c1nnc(NC(=O)Nc2ccc(C#Cc3c(N)ncnc3N)cc2)s1 [Example 11, N-(5-tert-butyl-1,3,4-thiadiazol-2-yl)-N′-{4-[(4,6-diaminopyrimidin-5-yl)ethynyl]phenyl}urea]
2.85 | 0.351 | Cc1cc(NC(=O)Nc2ccc(C#Cc3c(N)ncnc3N)cc2)sn1 [Example 12, N-{4-[(4,6-diaminopyrimidin-5-yl)ethynyl]phenyl}-N′-(3-methylisothiazol-5-yl)urea]
2.14 | 3.54 | Cc1cc(NC(=O)Nc2cccc(C#Cc3c(N)ncnc3N)c2)on1 [Example 19, N-{3-[(4,6-diaminopyrimidin-5-yl)ethynyl]phenyl}-N′-(3-methylsoxazol-5-yl)urea]
